Laboratory results as given in US20240269298A1, “PHOSPHONYL DERIVATIVE, AND COMPOSITION AND PHARMACEUTICAL APPLICATION THEREOF” (XIZANG HAISCO PHARMACEUTICAL CO., LTD., priority 2021, published 2024).
Where two headings read alike, the source gives them in different places.

Legend:
[1] = Pharmacokinetic test in mice; format: in vivo; details: male, ICR, mouse, po, administration i.g. (10 mg/kg), plasma
How it was run: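 Male ICR mice (20-25 g), fasted 12-14 h before dosing and fed 4 h after, received a single intravenous or intragastric dose. Orbital plasma sampled from 0 to 24 h (5 min-24 h points); LC-MS/MS quantitation for PK parameters and bioavailability.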

[2] = tested on: A431 (EGFR-WT) cells; assay: Inhibitory activity on proliferation of A431 (EGFR-WT) cells (CTG, 72 h); format: cell-based; details: Homo sapiens, A-431
How it was run: (§1)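 Cells plated at 1000/well (NCI-H1975, RPMI1640+10% FBS) or 3000/well (A431, DMEM+10% FBS), dosed next day with compounds (0.1% DMSO final) for 72 h at 37 °C, 5% CO2. Viability by CTG luminescence, normalised to vehicle control; IC50 from nonlinear-regression dose-survival curves.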

[3] = biological target: T1, EGFR protein in NCI-H1975 EGFR-L858R-T790M-C797S cells (Homo sapiens, UniProt P00533, C797S/L858R/T790M); assay: Degradation activity on EGFR protein in NCI-H1975 EGFR-L858R-T790M-C797S cells, Method II (western blot, 48 h); format: cell-based; details: 48 h incubation, EGFR protein relative to DMSO control
T1 construct: expressed in transfected cells; host or cells: NCI-H1975 EGFR-L858R-T790M-C797S (kept under hygromycin selection)
Procedure: Protein sample preparation: NCI-H1975 EGFR-L858R-T790M-C797S cells were cultured in an incubator at 37° C. with 5% CO2, and the culture medium was RPMI1640+10% FBS+100 μg/mL hygromycin. The cells in the logarithmic phase were collected, and the cell suspension was adjusted to an appropriate concentration with a hygromycin-free culture medium, plated on a 6-well plate at a density of 350000 cells/well and a volume of 2 mL, and cultured overnight in an incubator at 37° C. with 5% CO2. The next day, the compounds at different concentrations were added. DMSO control wells were provided, wherein the concentration of DMSO in all wells was 0.1%. The 6-well plate was cultured in an incubator at 37° C. with 5% CO2 for 48 h, and then 30 μL of RIPA lysates (Beyotime, Cat. P0013B) containing protease inhibitors (Beyotime, Cat. P0013B) were added. The mixtures were lysed on ice for 30 min. Centrifugation was carried out at 13000 rpm/min at 4° C. for 20 minutes to collect protein supernatant samples, and protein quantification was performed by the BCA method. Western Blot detection samples were prepared.
Western blot detection: 20 μg of protein samples were added to each well, subjected to polyacrylamide gel electrophoresis and transferred to a membrane, and then diluted anti-EGFR (CST, Cat. 4267S) and […] (Kangchen, Cat. KC-5G4) antibodies were added and incubated overnight at 4° C. After washing the membrane, diluted goat anti-rabbit (Licor, Cat. 926-32211) and goat anti-mouse (Licor, Cat. 926-68070) antibodies were added and incubated in the dark for 45 min. Scanning and detection at wavelengths of 700 nm and 800 nm were performed with a far-infrared imaging system (Odyssey).
According to formula (3), the expression level of EGFR protein in the cells relative to the DMSO control group was calculated after incubation with different concentrations of compounds. wherein EGFRcompound was the fluorescence value of EGFR protein after incubation with compounds, and EGFRvehicle was the fluorescence value of EGFR protein in the DMSO control group. Using the Origin 9.2 software, the drug concentration DC50 values when the expression level of EGFR protein was 50% relative to the DMSO control group were calculated.

[4] = tested on: NCI-H1975 EGFR-L858R-T790M-C797S cells; assay: Inhibitory activity on proliferation of NCI-H1975 EGFR-L858R-T790M-C797S cells (CellTiter-Glo, 72 h); format: cell-based; details: Homo sapiens
How it was run: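 Cells (1500/well) exposed to graded compound concentrations for 72 h at 37 °C in hygromycin-free RPMI1640 + 10% FBS, 0.1% DMSO vehicle. Viability by CellTiter-Glo luminescence relative to vehicle; IC50 from nonlinear sigmoidal dose-survival fit.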

[5] = tested on: NCI-H1975 (EGFR-L858R-T790M) cells; assay: Inhibitory activity on proliferation of NCI-H1975 (EGFR-L858R-T790M) cells (CTG, 72 h); format: cell-based; details: Homo sapiens
How it was run: as §1

T1 sequence (P00533 25-1210 T790M/C797S/L858R): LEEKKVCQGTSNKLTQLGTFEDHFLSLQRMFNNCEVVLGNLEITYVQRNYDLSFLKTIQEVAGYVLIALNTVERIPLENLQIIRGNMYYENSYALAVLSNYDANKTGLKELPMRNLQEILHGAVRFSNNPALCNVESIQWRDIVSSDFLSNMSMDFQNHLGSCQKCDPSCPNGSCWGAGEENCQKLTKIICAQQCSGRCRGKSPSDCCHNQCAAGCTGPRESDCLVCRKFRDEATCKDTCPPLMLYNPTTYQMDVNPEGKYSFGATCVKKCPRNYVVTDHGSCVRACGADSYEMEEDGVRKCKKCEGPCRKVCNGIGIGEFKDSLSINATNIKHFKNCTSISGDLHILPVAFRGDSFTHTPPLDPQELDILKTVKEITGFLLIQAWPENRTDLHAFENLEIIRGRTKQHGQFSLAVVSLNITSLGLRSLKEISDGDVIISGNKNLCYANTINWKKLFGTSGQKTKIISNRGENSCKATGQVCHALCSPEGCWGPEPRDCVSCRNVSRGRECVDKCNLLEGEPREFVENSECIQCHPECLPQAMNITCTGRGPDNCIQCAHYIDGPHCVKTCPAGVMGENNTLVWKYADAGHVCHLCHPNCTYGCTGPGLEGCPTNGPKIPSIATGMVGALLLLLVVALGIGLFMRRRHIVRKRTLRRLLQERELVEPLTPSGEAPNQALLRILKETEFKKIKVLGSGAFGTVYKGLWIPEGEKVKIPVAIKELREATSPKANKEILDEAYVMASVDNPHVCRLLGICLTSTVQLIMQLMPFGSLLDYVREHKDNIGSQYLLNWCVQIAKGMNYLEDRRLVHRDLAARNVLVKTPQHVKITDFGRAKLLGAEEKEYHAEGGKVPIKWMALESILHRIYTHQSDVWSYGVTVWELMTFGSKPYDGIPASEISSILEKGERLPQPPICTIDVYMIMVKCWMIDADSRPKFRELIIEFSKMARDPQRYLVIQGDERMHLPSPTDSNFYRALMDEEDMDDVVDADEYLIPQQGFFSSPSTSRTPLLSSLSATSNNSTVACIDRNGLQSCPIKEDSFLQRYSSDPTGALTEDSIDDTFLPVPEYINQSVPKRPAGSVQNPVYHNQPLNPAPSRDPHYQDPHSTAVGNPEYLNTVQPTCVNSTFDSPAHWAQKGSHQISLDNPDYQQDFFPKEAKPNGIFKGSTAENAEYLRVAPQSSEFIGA

AUC(0-t) [1]: 101 µg·h/mL
IC50 [2]: ≥ 10000 nM
DC50 [3]: < 100 nM
IC50 ([4]; read-out: IC50 (class symbol)): < 200 nM
IC50 ([4]; read-out: IC50 (value)): 79 nM
IC50 ([5]; read-out: IC50 (class symbol)): < 100 nM
IC50 ([5]; read-out: IC50 (value in brackets)): 51 nM
Compound: COc1cc(N2CCN(C[C@H]3CCN(c4ccc5c(c4)C(=O)N(C4CCC(=O)NC4=O)C5=O)C3)CC2)c(-c2cnn(C)c2)cc1Nc1ncc(Br)c(Nc2ccc(-c3ccccc3F)cc2P(C)(C)=O)n1 (stereo partly drawn) [Compound 117, 5-((R)-3-((4-(4-((5-bromo-4-((3-(dimethylphosphoryl)-2′-fluoro-[1,1′-biphenyl]-4-yl)amino)pyrimidin-2-yl)amino)-5-methoxy-2-(1-methyl-1H-pyrazol-4-yl)phenyl)piperazin-1-yl)methyl)pyrrolidin-1-yl)-2-(2,6-dioxopiperidin-3-yl)isoindoline-1,3-dione]
